Test results reported in patent US7261880B2, “Methods of treating Syndrome X with aliphatic polyamines” (priority 2001, dated 2007).
Where two headings read alike, the source gives them in different places. Marks after values point to notes of the source that are not given here.

Experiments:
[1] = tested on: patients with primary hypercholesterolemia; details: 4 weeks
[2] = tested on: patients with primary hypercholesterolemia; details: Lovastatin 10 mg/day, 4 weeks
[3] = tested on: patients with primary hypercholesterolemia; experiment: Simvastatin Trial (6-week), colesevelam in combination with simvastatin; format: in vivo, human; details: 6 weeks

In the case of CC(C)c1c(C(=O)Nc2ccccc2)c(-c2ccccc2)c(-c2ccc(F)cc2)n1CC[C@@H](O)C[C@@H](O)CC(=O)O [Atorvastatin, atorvastatin], the “Apo B mean percentage change” value ([1]; Atorvastatin 10 mg/day) is reported as −32* %, the “HDL-C median percentage change” value ([1]; Atorvastatin 10 mg/day) is reported as “+8%” and the “LDL-C mean percentage change” value ([1]; Atorvastatin 10 mg/day) is reported as −38* %. For the same compound, the “TG median percentage change” value ([1]; Atorvastatin 10 mg/day) was −24* %, the “Total-C mean percentage change” value ([1]; Atorvastatin 10 mg/day) was −27* % and the “Apo B mean percentage change” value ([1]; Atorvastatin 80 mg/day) was −46* %. The “HDL-C median percentage change” value ([1]; Atorvastatin 80 mg/day) was “+6%”, the “LDL-C mean percentage change” value ([1]; Atorvastatin 80 mg/day) was −53* % and the “TG median percentage change” value ([1]; Atorvastatin 80 mg/day) was −33* %. The “Total-C mean percentage change” value ([1]; Atorvastatin 80 mg/day) was −39* %.

For CC[C@H](C)C(=O)O[C@H]1C[C@@H](C)C=C2C=C[C@H](C)[C@H](CC[C@@H]3C[C@@H](O)CC(=O)O3)[C@H]21 [Lovastatin, lovastatin], the “Apo B mean percentage change” value [2] was −16%, the “HDL-C median percentage change” value [2] was “+5%” and the “LDL-C mean percentage change” value [2] was −22* %. For the same compound, the “TG median percentage change” value [2] was 0% and the “Total-C mean percentage change” value [2] was −14* %.

For CCC(C)(C)C(=O)O[C@H]1C[C@@H](C)C=C2C=C[C@H](C)[C@H](CC[C@@H]3C[C@@H](O)CC(=O)O3)[C@H]21 [Simvastatin, simvastatin], the “Apo B mean percentage change” value ([3]; Simvastatin 10 mg/day) was −20* %, the “HDL-C median percentage change” value ([3]; Simvastatin 10 mg/day) was “+3* %” and the “LDL-C mean percentage change” value ([3]; Simvastatin 10 mg/day) was −26* %. For the same compound, the “TG median percentage change” value ([3]; Simvastatin 10 mg/day) was −17* %, the “Total-C mean percentage change” value ([3]; Simvastatin 10 mg/day) was −19* % and the “Apo B mean percentage change” value ([3]; Simvastatin 20 mg/day) was −26* %. For the same compound, the “HDL-C median percentage change” value ([3]; Simvastatin 20 mg/day) was “+7* %”, the “LDL-C mean percentage change” value ([3]; Simvastatin 20 mg/day) was −34* % and the “TG median percentage change” value ([3]; Simvastatin 20 mg/day) was −12* %. The “Total-C mean percentage change” value ([3]; Simvastatin 20 mg/day) was −23* %.
